Assay results as given in US10392398B2, “Inhibitors of Late SV40 Factor (LSF) as cancer chemotherapeutics” (TRUSTEES OF BOSTON UNIVERSITY, priority 2010, dated 2019).

Experiments:
[1] = test system: USF; assay: USF-dependent reporter assay; format: cell-based
Procedure: (§1) USF-dependent reporter assays were performed with FQI1 only. Averages with standard deviation (SD) derive from 3-4 independent experiments. […] “−LSF”: translation extract with no programmed LSF. […] Myc-LSF-HA expression was induced with the small molecule inducer RSL1. In induced cells, FQI1 or vehicle was added for the final 12 h of myc-LSF-HA induction.

[2] = molecular target: T1, LSF (Homo sapiens, UniProt Q12800); assay: Chromatin immunoprecipitation of myc-LSF-HA binding to the endogenous POLA1 promoter; format: cell-based; design: expressed in transfected cells; settings: human cell line
T1 sequence (Q12800 1-502): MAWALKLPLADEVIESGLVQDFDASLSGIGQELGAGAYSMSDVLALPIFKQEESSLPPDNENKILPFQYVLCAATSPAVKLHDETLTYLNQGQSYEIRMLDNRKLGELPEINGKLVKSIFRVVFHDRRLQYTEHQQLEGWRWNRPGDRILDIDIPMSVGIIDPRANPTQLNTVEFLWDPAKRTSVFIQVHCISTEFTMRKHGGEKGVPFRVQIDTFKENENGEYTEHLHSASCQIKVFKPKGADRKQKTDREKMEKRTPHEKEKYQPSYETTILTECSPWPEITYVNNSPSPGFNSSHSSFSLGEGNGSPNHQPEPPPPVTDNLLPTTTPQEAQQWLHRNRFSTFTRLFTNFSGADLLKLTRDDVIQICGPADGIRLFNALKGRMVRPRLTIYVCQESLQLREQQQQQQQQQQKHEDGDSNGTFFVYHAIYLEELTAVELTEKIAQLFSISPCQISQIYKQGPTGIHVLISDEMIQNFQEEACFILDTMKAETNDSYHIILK
Procedure: as §1

[3] = molecular target: T2, GRHL1 (Homo sapiens, UniProt Q9NZI5); assay: Cellular Thermal Shift Assay (CETSA), GRHL1; format: binding; settings: QGY-7703 lysate, 500 μM
T2 construct: endogenous in cells; host or cells: QGY-7703 cell lysate
T2 sequence (Q9NZI5 1-618): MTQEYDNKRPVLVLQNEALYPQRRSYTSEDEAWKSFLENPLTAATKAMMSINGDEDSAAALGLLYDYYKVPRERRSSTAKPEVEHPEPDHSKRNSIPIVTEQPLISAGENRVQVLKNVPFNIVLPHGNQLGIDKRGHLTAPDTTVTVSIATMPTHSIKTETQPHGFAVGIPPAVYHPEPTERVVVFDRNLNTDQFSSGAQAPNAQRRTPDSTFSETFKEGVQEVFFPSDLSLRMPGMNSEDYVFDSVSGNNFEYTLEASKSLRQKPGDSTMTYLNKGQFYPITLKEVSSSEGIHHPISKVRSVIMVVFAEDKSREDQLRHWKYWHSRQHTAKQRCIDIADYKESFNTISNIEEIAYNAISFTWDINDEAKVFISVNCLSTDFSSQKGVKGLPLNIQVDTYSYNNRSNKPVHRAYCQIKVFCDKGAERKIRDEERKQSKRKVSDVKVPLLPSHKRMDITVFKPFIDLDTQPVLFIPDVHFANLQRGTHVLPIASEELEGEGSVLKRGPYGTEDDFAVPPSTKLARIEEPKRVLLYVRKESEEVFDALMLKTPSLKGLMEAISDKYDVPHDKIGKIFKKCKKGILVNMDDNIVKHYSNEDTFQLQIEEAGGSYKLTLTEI
Procedure: Drug-target engagement was assessed using CETSA as described by Molina et al. (Monitoring Drug-Target Engagement in Cells and Tissues Using Cellular Thermal Shift Assay. Science (2013) 341, 84-87). QGY-7703 cells were cultured at 37° C. in 5% CO2 in DMEM (Dulbecco's modification of Eagle's Medium; Corning) supplemented with 10% Fetal Bovine Serum (FBS; Invitrogen). Cells were seeded into 10 cm plates and allowed to reach 60-80% confluency. After trypsinization (0.05% Trypsin-EDTA, Invitrogen), cell pellet was washed twice with ice-cold 1×PBS (137 mM NaCl, 2.7 mM KCl, 10 mM Na2HPO4, 2 mM KH2PO4, pH 7.2). Cell pellet was lysed by addition of 200 μL freshly prepared ice-cold RIPA buffer (10 mM Tris-Cl pH 8.0, 1 mM EDTA, 0.5 mM EGTA, 1% Triton X-100, 0.1% sodium deoxycholate, 0.1% SDS, 140 mM NaCl) supplemented with 1 mM Pefabloc (Sigma-Aldrich), and flash frozen in liquid nitrogen and thawed for a total of three cycles. Cell lysate was centrifuged at 20,000×g for 20 minutes to clarify. Supernatant was either treated immediately or saved at −80° C. for future use. […]
Immunoblots were quantified using Image J and graphed using GraphPad PRISM. Area-under-the-curve (AUC) for the quantified western blots were calculated with GraphPad PRISM and non-parametric t-test was calculated to determine statistical significance between the curves. […]

[4] = Rat tolerability
Procedure: The purpose of the study was to determine the tolerability of FQI-34 in rats as administered by IV at 3 dose levels-5, 15, and 50 mg/kg. FQI-34 was formulated in 20% DMSO/50% PEG-400/30% saline, and administered by IV at 5 mL/kg for compound or 10 mL/kg for vehicle alone. 6 rats per dose arm were used (3 male and 3 female), with single dose administration with monitoring over 14 days. Gross necropsy was performed at the end of the study.

[5] = rats, single IV dose, 50 mg/mL dose level as printed

Structure (SMILES)	transactivation of a USF-dependent reporter by USF [1]	binding of inducible HA-tagged LSF to the POLA1 promoter (ChIP) [2]	binding to GRHL1 by CETSA [3]	gross necropsy ([4]; end of study, 14 days after single IV dose of 5, 15 or 50 mg/kg)	condition of all rats for duration of study ([4]; excluding the male rat B, 5, 15 and 50 mg/kg IV, 14 days)	observations in all other rats at this dose level ([4]; rats, single IV dose, 15 mg/mL dose as printed, 14 days)	mortality ([4]; rats, single IV dose, 15 mg/mL dose as printed, believed to be due to stress and not compound related)	observations upon dosing [4, 5]	time until rats returned to normal [4, 5] [min]
CCOc1ccccc1C1CC(=O)Nc2cc3c(cc21)OCO3 (racemic) [FQI1, 8-(2-ethoxyphenyl)-7,8-dihydro-[1,3]dioxolo[4,5-g]quinolin-6(5H)-one]	unaffected	efficiently blocked							
CCOc1cc(N(C)C)ccc1C1CC(=O)Nc2cc3c(cc21)OCO3 (stereo not drawn) [FQI-34, 8-(4-(dimethylamino)-2-ethoxyphenyl)-7,8-dihydro-[1,3]dioxolo[4,5-g]quinolin-6(5H)-one]			does not bind	no abnormal findings	within normal limits	remained normal throughout the study	Male Rat B died	pronation, increased respiratory rate, and decreased activity	≤ 30
